≈ marks a conversion by molar mass, not a printed value.
Legend:
MDCK [1] = test: Anti-influenza virus activity was evaluated in Madin-Darby canine kidney (MDCK) cells against influenza A H2N2 strain (A2 Japan/305/57); assay type: functional; details: Canis lupus familiaris
MDCK [2] = test: Anti-influenza virus activity was evaluated in Madin-Darby canine kidney (MDCK) cells against influenza A H3N2 (X31); assay type: functional; details: Canis lupus familiaris
MDCK [3] = test: Anti-influenza virus activity was evaluated in Madin-Darby canine kidney (MDCK) cells against influenza B (Hong Kong/5/72); assay type: functional; details: Canis lupus familiaris
MDCK [4] = test: Concentration required to reduce the viability of MDCK cells; assay type: functional, Canis lupus familiaris

SMILES	MIC50 (MDCK [1]) [µM]	MIC50 (MDCK [2]) [µM]	MIC50 (MDCK [3]) [µM]	MTC50 (MDCK [4]) [µM]
CCN1CCCCC1C1C2CC3CC(C2)CC1C3 (stereo unspecified)	> 28	> 28	> 28	143
CN1CCCCC1C1C2CC3CC(C2)CC1C3 (stereo unspecified)	> 143	> 143	> 143	977
C1CCN(CC2CC2)C(C2C3CC4CC(C3)CC2C4)C1 (stereo unspecified)	143 (≈ 39.1 µg/mL)	> 143	> 143	977
C1CCC(C2C3CC4CC(C3)CC2C4)NC1 (stereo unspecified)	7.8 (≈ 1.71 µg/mL)	> 977	> 977	>977
NC12CC3CC(CC(C3)C1)C2 [AMANTADINE]	28.3 (≈ 4.28 µg/mL)			1333
NC(=O)c1ncn([C@@H]2O[C@H](CO)[C@@H](O)[C@H]2O)n1 [RIBAVIRIN]	31.1 (≈ 7.59 µg/mL)	41 (≈ 10 µg/mL)	41 (≈ 10 µg/mL)	>1025
CC(N)C12CC3CC(CC(C3)C1)C2 (stereo unspecified) [RIMANTADINE]	20.9 (≈ 3.75 µg/mL)	> 56	> 93	1160
